Counter-ions that a name gives are not always drawn.
Target: T1, purified recombinantly expressed human SSAO (Homo sapiens, UniProt Q16853)
T1 construct: made in house
T1 sequence (Q16853 29-763 limits assumed): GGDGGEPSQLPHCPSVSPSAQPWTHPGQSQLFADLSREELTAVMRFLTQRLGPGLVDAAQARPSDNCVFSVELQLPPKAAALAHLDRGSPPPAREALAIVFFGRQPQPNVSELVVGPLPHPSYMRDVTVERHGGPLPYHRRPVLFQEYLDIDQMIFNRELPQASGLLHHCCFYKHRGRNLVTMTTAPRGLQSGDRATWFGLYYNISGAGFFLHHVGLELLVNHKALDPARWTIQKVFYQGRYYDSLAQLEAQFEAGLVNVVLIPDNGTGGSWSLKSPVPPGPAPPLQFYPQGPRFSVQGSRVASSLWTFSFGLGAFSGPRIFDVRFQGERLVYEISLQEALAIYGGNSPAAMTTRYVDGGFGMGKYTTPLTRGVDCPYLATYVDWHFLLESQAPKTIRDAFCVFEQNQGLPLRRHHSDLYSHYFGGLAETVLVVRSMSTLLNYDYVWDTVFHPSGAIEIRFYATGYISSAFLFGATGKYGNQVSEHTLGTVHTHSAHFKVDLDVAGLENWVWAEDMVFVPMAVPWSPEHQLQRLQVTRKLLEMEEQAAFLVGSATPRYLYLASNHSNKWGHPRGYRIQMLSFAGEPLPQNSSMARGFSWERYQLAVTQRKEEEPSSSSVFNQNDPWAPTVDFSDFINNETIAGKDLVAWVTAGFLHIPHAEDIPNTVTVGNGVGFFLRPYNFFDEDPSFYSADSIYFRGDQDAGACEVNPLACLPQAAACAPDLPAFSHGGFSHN
Experiment: SSAO enzyme inhibition assay (benzylamine substrate; hydrogen peroxide/HRP-coupled or 14C aldehyde detection)
Type: biochemical
Conditions: human recombinant SSAO, RT, benzylamine as substrate; read-out: SSAO inhibitory activity IC50
Experimental: All primary assays were performed at RT. with purified recombinantly expressed human SSAO. Enzyme was prepared essentially as described in Ohman et al. (Protein Expression and Purification 46 (2006) 321 331). In addition, secondary- and selectivity assays were performed using SSAO prepared from various tissues or purified rat recombinant SSAO. The enzyme activity was assayed with benzylamine as substrate by measuring either benzaldehyde production, using ^14C-labeled substrate, or by utilizing the production of hydrogen peroxide in a horseradish peroxidase (HRP) coupled reaction. Briefly, test compounds were dissolved in dimethyl sulfoxide (DMSO) to a concentration of 10 mM. Dose-response measurements were assayed by either creating 1:10 serial dilutions in DMSO to produce a 7 point curve or by making 1:3 serial dilutions in DMSO to produce 11 point curves. The top concentrations were adjusted depending on the potency of the compounds and subsequent dilution in reaction buffer yielded a final DMSO concentration ≦2%.
In a horseradish peroxidase (HRP) coupled reaction, hydrogen peroxide oxidation of 10-acetyl-3,7-dihydroxyphenoxazine produced resorufin, which is a highly fluorescent compound (Zhout and Panchuk-Voloshina. Analytical Biochemistry 253 (1997) 169-174; Amplex® Red Hydrogen Peroxide/peroxidase Assay kit, Invitrogen A22188). Enzyme and compounds in 50 mM sodium phosphate, pH 7.4 were set to pre-incubate in flat-bottomed microtiter plates for approximately 15 minutes before initiating the reaction by addition of a mixture of HRP, benzylamine and Amplex reagent. Benzylamine concentration was fixed at a concentration corresponding to the Michaelis constant, determined using standard procedures. Fluorescence intensity was then measured at several time points during 1-2 hours, exciting at 544 nm and reading the emission at 590 nm. For the human SSAO assay final concentrations of the reagents in the assay wells were: SSAO enzyme 1 μg/ml, benzylamine 100 μM, Amplex reagent 20 μM, HRP 0.1 U/mL and varying concentrations of test compound. The inhibition was measured as % decrease of the signal compared to a control without inhibitor (only diluted DMSO). The background signal from a sample containing no SSAO enzyme was subtracted from all data points. Data was fitted to a four parameter logistic model and IC50 values were calculated using the GraphPad Prism 4 or XLfit 4 programs.
SSAO activity was assayed using 14C-labeled benzylamine and analysed by measuring radioactive benzaldehyde. In a white 96-well optiplate (Packard), 20 μL of diluted test compound was pre-incubated at RT. with 20 μL SSAO enzyme for approximately 15 minutes with continuous agitation. All dilutions were made with PBS. The reaction was initiated by adding 20 μL of the benzylamine substrate solution containing [7-14C] Benzylamine hydrochloride (CFA589, GE Healthcare). The plate was incubated for 1 hour as above after which the reaction was stopped by acidification (10 μL 1 M HCl). Then 90 μL Micro Scint-E solution (Perkin-Elmer) was added to each well and the plate was continuously mixed for 15 minutes. Phase separation occurred instantly and activity was read in a Topcount scintillation counter (Perkin-Elmer). In the final reaction well, the human recombinant SSAO concentration was 10 μg/ml. In order to optimize sensitivity, the substrate concentration was decreased as compared to the HRP coupled assay in order to get a higher fraction of radioactive product. In the human SSAO assay, benzylamine concentration was 40 μM (0.2 μCi/mL). Data was analysed as above.

Row | SMILES | IC50 [nM]
1 | OCCC1COCCN1c1nn(-c2ccc(Cl)cc2)c2cnccc12 (stereo not drawn) [Example 22, 2-{4-[1-(4-Chlorophenyl)-1H-pyrazolo[3,4-c]pyridin-3-yl]morpholin-3-yl}ethan-1-ol] | < 100
2 | NCCCCC(=O)N1CCC(c2cn(-c3ccc(Cl)cc3)c3cnccc23)CC1 [Example 4, 5-Amino-1-{4-[1-(4-chlorophenyl)-1H-pyrrolo[2,3-c]pyridin-3-yl]piperidin-1-yl}pentan-1-one] | < 100
3 | CN(C)CCCNC(=O)N1CCC(c2cn(-c3ccc(Cl)cc3)c3cnccc23)CC1 [Example 7, 4-[1-(4-Chlorophenyl)-1H-pyrrolo[2,3-c]pyridin-3-yl]-N-[3-(dimethylamino)propyl]piperidine-1-carboxamide] | < 100
4 | NCCNC(=O)N1CCC(c2cn(-c3ccc(Cl)cc3)c3cnccc23)CC1 [Example 5, N-(2-Aminoethyl)-4-[1-(4-chlorophenyl)-1H-pyrrolo[2,3-c]pyridin-3-yl]piperidine-1-carboxamide] | < 100
5 | O=C(C1CCN(c2nn(-c3ccc(Cl)cc3)c3cnccc23)CC1)N1CCNCC1 [Example 16, 1-({1-[1-(4-Chlorophenyl)-1H-pyrazolo[3,4-c]pyridin-3-yl]piperidin-4-yl}carbonyl)piperazine dihydrochloride] | 100 to 500
6 | Cc1ccc(-n2nc(N3CCOCC3CO)c3ccncc32)cc1 (stereo not drawn) [Example 17, {4-[1-(4-Methylphenyl)-1H-pyrazolo[3,4-c]pyridin-3-yl]morpholin-3-yl}methanol] | < 100
7 | NCCNC(=O)C1CCCCN1c1nn(-c2ccc(Cl)cc2)c2cnccc12 (stereo not drawn) [Example 24, N-(2-Aminoethyl)-1-[1-(4-chlorophenyl)-1H-pyrazolo[3,4-c]pyridin-3-yl]piperidine-2-carboxamide dihydrochloride] | < 100
8 | O=C(N1CCCNCC1)N1CCC(c2cn(-c3ccc(Cl)cc3)c3cnccc23)CC1 [Example 10, 1-({4-[1-(4-Chlorophenyl)-1H-pyrrolo[2,3-c]pyridin-3-yl]piperidin-1-yl}carbonyl)-1,4-diazepane] | < 100
9 | NCCCOC(=O)N1CCC(c2cn(-c3ccc(Cl)cc3)c3cnccc23)CC1 [Example 2, 3-Aminopropyl 4-[1-(4-chlorophenyl)-1H-pyrrolo[2,3-c]pyridin-3-yl]piperidine-1-carboxylate] | < 100
10 | COC(=O)C1COCCN1c1nn(-c2ccc(Cl)cc2)c2cnccc12 (stereo not drawn) [Example 20, Methyl 4-[1-(4-chlorophenyl)-1H-pyrazolo[3,4-c]pyridin-3-yl]morpholine-3-carboxylate] | 100 to 500
11 | CCOC(=O)C1CCN(c2nn(-c3ccc(Cl)cc3)c3cnccc23)CC1 [Example 11, Ethyl 1-[1-(4-chlorophenyl)-1H-pyrazolo[3,4-c]pyridin-3-yl]piperidine-4-carboxylate] | 500 to 2500
12 | NCCCNC(=O)N1CCC(c2cn(-c3ccc(Cl)cc3)c3cnccc23)CC1 [Example 6, N-(3-Aminopropyl)-4-[1-(4-chlorophenyl)-1H-pyrrolo[2,3-c]pyridin-3-yl]piperidine-1-carboxamide] | < 100
13 | Cc1ccc(-n2cc(N3CCOCC3)c3ccncc32)cc1 [Example 26, 4-[1-(4-Methylphenyl)-1H-pyrrolo[2,3-c]pyridin-3-yl]morpholine] | 100 to 500
14 | O=C(C1CCN(c2nn(-c3ccc(Cl)cc3)c3cnccc23)CC1)N1CCOCC1 [Example 15, 4-({1-[1-(4-Chlorophenyl)-1H-pyrazolo[3,4-c]pyridin-3-yl]piperidin-4-yl}carbonyl) morpholine] | 500 to 2500
15 | O=C(C1CCCCN1c1nn(-c2ccc(Cl)cc2)c2cnccc12)N1CCNCC1 (stereo not drawn) [Example 25, 1-({1-[1-(4-Chlorophenyl)-1H-pyrazolo[3,4-c]pyridin-3-yl]piperidin-2-yl}carbonyl) piperazine] | < 100
16 | NCCNC(=O)C1COCCN1c1nn(-c2ccc(Cl)cc2)c2cnccc12 (stereo not drawn) [Example 21, N-(2-Aminoethyl)-4-[1-(4-chlorophenyl)-1H-pyrazolo[3,4-c]pyridin-3-yl]morpholine-3-carboxamide] | < 100
17 | NCCNC(=O)C1CCN(c2nn(-c3ccc(Cl)cc3)c3cnccc23)CC1 [Example 14, N-(2-Aminoethyl)-1-[1-(4-chlorophenyl)-1H-pyrazolo[3,4-c]pyridin-3-yl]piperidine-4-carboxamide dihydrochloride] | 100 to 500
18 | Cc1ccc(-n2nc(N3CCOC(CO)C3)c3ccncc32)cc1 (stereo not drawn) [Example 18, {4-[1-(4-Methylphenyl)-1H-pyrazolo[3,4-c]pyridin-3-yl]morpholin-2-yl}methanol] | < 100
19 | O=C(N1CCNCC1)N1CCC(c2cn(-c3ccc(Cl)cc3)c3cnccc23)CC1 [Example 8, 1-({4-[1-(4-Chlorophenyl)-1H-pyrrolo[2,3-c]pyridin-3-yl]piperidin-1-yl}carbonyl)piperazine] | < 100
20 | CN(C)CCCC(=O)N1CCC(c2cn(-c3ccc(Cl)cc3)c3cnccc23)CC1 [Example 3, 1-{4-[1-(4-Chlorophenyl)-1H-pyrrolo[2,3-c]pyridin-3-yl]piperidin-1-yl}-4-(dimethylamino)butan-1-one; 2,2,2-trifluoroacetic acid] | < 100
21 | CCCCN(C)c1nn(-c2ccc(Cl)cc2)c2cnccc12 [Example 28, N-Butyl-1-(4-chlorophenyl)-N-methyl-1H-pyrazolo[3,4-c]pyridin-3-amine] | 500 to 2500
22 | OC[C@@H]1COCCN1c1nn(-c2ccc(Cl)cc2)c2cnccc12 [Example 19, [(3R)-4-[1-(4-Chlorophenyl)-1H-pyrazolo[3,4-c]pyridin-3-yl]morpholin-3-yl]methanol] | < 100
23 | COC(=O)C1CCCCN1c1nn(-c2ccc(Cl)cc2)c2cnccc12 (stereo not drawn) [Example 23, Methyl 1-[1-(4-chlorophenyl)-1H-pyrazolo[3,4-c]pyridin-3-yl]piperidine-2-carboxylate] | 500 to 2500
24 | O=C(N1CCOCC1)N1CCC(c2cn(-c3ccc(Cl)cc3)c3cnccc23)CC1 [Example 9, 4-({4-[1-(4-Chlorophenyl)-1H-pyrrolo[2,3-c]pyridin-3-yl]piperidin-1-yl}carbonyl)morpholine] | 100 to 500
25 | CCOC(=O)C1CCN(c2nn(-c3ccc(C)cc3)c3cnccc23)CC1 [Example 12, Ethyl 1-[1-(4-methylphenyl)-1H-pyrazolo[3,4-c]pyridin-3-yl]piperidine-4-carboxylate] | 100 to 500
26 | Oc1cncc2c1c(C1CCNCC1)cn2-c1ccc(Cl)cc1 [Example 27, 1-(4-Chlorophenyl)-3-(piperidin-4-yl)-1H-pyrrolo[2,3-c]pyridin-4-ol] | < 100
27 | O=C(O)C1CCN(c2nn(-c3ccc(Cl)cc3)c3cnccc23)CC1 [Example 13, 1-[1-(4-Chlorophenyl)-1H-pyrazolo[3,4-c]pyridin-3-yl]piperidine-4-carboxylic acid hydrochloride] | 100 to 500

— patent US9150574B2, “Enzyme inhibitor compounds” (Proximagen Limited, priority 2011, dated 2015)
